Literature values as cited in US20050188697A1, “Fluorinated ketone and fluorinated ethers as working fluids for thermal energy conversion” (HONEYWELL CORPORATION, priority 2004, published 2005).
Values belong to the compound of their own block, whether it stands above or below them.

Assays:
[1] = at 1 atmosphere
[2] = for Critical Temperature, Tc: Table 4 input

Structure (SMILES): COC(F)(F)C(F)(F)C(F)(F)F [Methyl (perfluoropropyl) ether, 1-methoxyheptafluoropropane]
Flame Limits [1]: None
Critical Temperature, Tc [2]: 165.0 °C
Heat Capacity (liquid, 25° C.) [2]: 260.0 J/g-mol K

Structure (SMILES): O=C(C(F)(F)C(F)(F)F)C(F)(C(F)(F)F)C(F)(F)F [Perfluoroethyl perfluoroisopropyl ketone, dodecafluoro-2-methylpentan-3-one]
Flame Limits [1]: None
Critical Temperature, Tc [2]: 168.7 °C
Heat Capacity (liquid, 25° C.) [2]: 348.5 J/g-mol K

Structure (SMILES): COC(F)(F)C(F)(F)C(F)(F)C(F)(F)F [Methyl (perfluorobutyl) ether, 1-methoxynonafluorobutane]
Flame Limits [1]: None
Critical Temperature, Tc [2]: 195.3 °C
Heat Capacity (liquid, 25° C.) [2]: 293.8 J/g-mol K

Flame Limits [1]: None
Critical Temperature, Tc [2]: 151.1 °C
Heat Capacity (liquid, 25° C.) [2]: 185.5 J/g-mol K
Structure (SMILES): FC(F)CC(F)(F)F [HFC-245fa, 1,1,1,3,3-pentafluoropropane, reference compound]

Structure (SMILES): FC(F)(F)C(Cl)Cl [HCFC-123, 1,1-dichloro-2,2,2-trifluoroethane, reference compound]
temperature at which toxic HCFC-133a is formed (thermal decomposition): below 300 ° F.
maximum temperature (thermal limitation) (to avoid formation of toxic HCFC-133a via thermal decomposition): 121.0 °C
Flame Limits [1]: None
Critical Temperature, Tc [2]: 183.6 °C
Heat Capacity (liquid, 25° C.) [2]: 160.3 J/g-mol K
